Experimental data: ChEMBL document CHEMBL1201862, “PubChem BioAssay data set” (2004)
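Growth conditions: 96-well plates. Treatment: test compound, 48 hours, 5 concentrations. Analysis: linear interpolation between bracketing concentrations; unreached endpoints set to highest concentration. GI50: concentration for 50% inhibition of growth.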 Active and inactive are the calls of the source. Cut-off read from the data, not from the text of the source: active = GI50 up to about 1.1 µM and inactive = higher.

Key:
Assay in all cases: NCI anticancer screen, dose series, 48 h
[1] = system: 786-0
[2] = system: A549
[3] = system: ACHN
[4] = system: BT-549
[5] = system: CAKI-1
[6] = system: CCRF-CEM
[7] = system: COLO 205
[8] = system: DU-145
[9] = system: EKVX
[10] = system: HCC 2998
[11] = system: HCT-116
[12] = system: HCT-15
[13] = system: HL-60
[14] = system: HOP-62
[15] = system: HT-29
[16] = system: Hs-578T
[17] = system: IGROV-1
[18] = system: K562
[19] = system: KM12
[20] = system: LOX IMVI
[21] = system: M14
[22] = system: MCF7
[23] = system: MDA-MB-231
[24] = system: MDA-MB-435
[25] = system: MDA-N
[26] = system: MOLT-4
[27] = system: Malme-3M
[28] = system: NCI-H226
[29] = system: NCI-H23
[30] = system: NCI-H460
[31] = system: NCI-H522
[32] = system: NCI/ADR-RES
[33] = system: OVCAR-3
[34] = system: OVCAR-4
[35] = system: OVCAR-5
[36] = system: OVCAR-8
[37] = system: PC-3
[38] = system: RPMI-8226
[39] = system: RXF 393
[40] = system: SF-268
[41] = system: SF-295
[42] = system: SF-539
[43] = system: SK-MEL-28
[44] = system: SK-MEL-2
[45] = system: SK-MEL-5
[46] = system: SK-OV-3
[47] = system: SN12C
[48] = system: SNB-19
[49] = system: SNB-75
[50] = system: SR
[51] = system: SW-620
[52] = system: T47D
[53] = system: TK-10
[54] = system: U-251
[55] = system: UACC-257
[56] = system: UACC-62
[57] = system: UO-31

For `CN(c1ccc(Cl)cc1)S(=O)(=O)c1ccccc1`, the GI50 [1] was > 100 µM (inactive), the GI50 [2] was 72.4 µM (inactive) and the GI50 [3] was > 100 µM (inactive). The GI50 [4] was 32 µM (inactive), the GI50 [5] was 51.3 µM (inactive) and the GI50 [6] was 46.2 µM (inactive). The GI50 [7] was 47.2 µM (inactive), the GI50 [8] was > 100 µM (inactive) and the GI50 [9] was 37.6 µM (inactive). The GI50 [10] was 84.1 µM (inactive), the GI50 [11] was 37.5 µM (inactive) and the GI50 [12] was 52.2 µM. For the same compound, the GI50 [13] was 15 µM (inactive), the GI50 [14] was 71.9 µM (inactive) and the GI50 [15] was 42.3 µM (inactive). The GI50 [16] was > 100 µM (inactive), the GI50 [17] was > 100 µM (inactive) and the GI50 [18] was 36.8 µM (inactive). The GI50 [19] was 40.8 µM (inactive), the GI50 [20] was 42.8 µM (inactive) and the GI50 [21] was 45.1 µM (inactive). The GI50 [22] was 52.4 µM (inactive), the GI50 [23] was 35.4 µM (inactive) and the GI50 [24] was 41.3 µM (inactive). The GI50 [25] was 64.9 µM (inactive), the GI50 [26] was 28 µM (inactive) and the GI50 [27] was > 100 µM (inactive). The GI50 [28] was 30.4 µM (inactive), the GI50 [29] was 30.8 µM (inactive) and the GI50 [30] was 43.1 µM (inactive). For the same compound, the GI50 [31] was 76.7 µM (inactive), the GI50 [32] was 36 µM (inactive) and the GI50 [33] was 64.3 µM (inactive). The GI50 [34] was 77.1 µM (inactive), the GI50 [35] was 52.8 µM (inactive) and the GI50 [36] was 44.6 µM (inactive). For the same compound, the GI50 [37] was 21.6 µM (inactive), the GI50 [38] was 42.3 µM (inactive) and the GI50 [39] was 11.3 µM (inactive). The GI50 [40] was 49 µM (inactive), the GI50 [41] was 65.3 µM (inactive) and the GI50 [42] was 43 µM (inactive). The GI50 [43] was 54.8 µM (inactive), the GI50 [44] was > 100 µM (inactive) and the GI50 [45] was 18.7 µM (inactive). The GI50 [46] was 78.5 µM (inactive), the GI50 [47] was > 100 µM (inactive) and the GI50 [48] was 97.7 µM (inactive). For the same compound, the GI50 [49] was 61.4 µM (inactive), the GI50 [50] was 32.1 µM (inactive) and the GI50 [51] was 85.5 µM (inactive). For the same compound, the GI50 [52] was 34.2 µM (inactive), the GI50 [53] was 65.6 µM (inactive) and the GI50 [54] was 42.9 µM (inactive). For the same compound, the GI50 [55] was > 100 µM (inactive), the GI50 [56] was 48.4 µM (inactive) and the GI50 [57] was 42 µM (inactive).
